Data from patent US11337950B2, “Biologically active cannabidiol analogs” (University of Mississippi, priority 2016, dated 2022).
Values joined by “and” are separate entries in the source; they are usually repeats but may differ in a detail not shown here. Equal entries are not always repeated.

Assay: Plasma and organ concentrations of CBD and CBD-Mono-VHS after IP administration (Example 22)
Assay type: in vivo
Conditions: mice; for CBD Plasma Concentration, AVG. / Total CBD, Brain, AVG. / Total CBD, Kidney, AVG. / Total CBD, Liver, AVG. / Total CBD, Spleen, AVG. / Total CBD, Total, AVG. / CBD Plasma Concentration / Total CBD, Brain / Total CBD, Kidney / Total CBD, Liver / Total CBD, Spleen / Total CBD, Total: IP CBD-Mono-VHS
Procedure: CBD-Mono-VHS was administered intraperitoneally to mice at 2 doses (30 μg and 60 μg equivalent of CBD/mouse). Seventy minutes after dosing the animals (3 mice in each dose group), all animals were sacrificed. Blood, as well as organs (liver, spleen, kidney, and brain), were harvested for LC-MS/MS analysis of their content of both CBD and CBD-Mono-VHS.
Also shown is the concentration of CBD-Mono-VHS in the plasma 70 minutes after dosing.

[1] = High Dose (60 μg CBD/mouse), 70 Minutes
[2] = High Dose (60 μg CBD/mouse), 70 Minutes, individual animals
[3] = Low Dose (30 μg CBD/mouse), 70 Minutes
[4] = Low Dose (30 μg CBD/mouse), 70 Minutes, individual animals
[5] = IP, High Dose (60 μg CBD/mouse), 70 Minutes
[6] = IP, High Dose (60 μg CBD/mouse), 70 Minutes, individual animals, listed as CBD-Mono-Val-Mono-HS
[7] = IP, Low Dose (30 μg CBD/mouse), 70 Minutes
[8] = IP, Low Dose (30 μg CBD/mouse), 70 Minutes, individual animals, listed as CBD-Mono-Val-Mono-HS

In the case of C=C(C)C1CCC(C)=CC1c1c(O)cc(CCCCC)cc1OC(=O)[C@@H](NC(=O)CCC(=O)O)C(C)C (some centres unmarked) [CBD-Mono-VHS, CBD-Mono-Valinate-Mono-Hemisuccinate], the “Blood brain barrier passage, in words” value (IP 30 and 60 μg, 70 minutes) was “crosses the blood brain barrier”, the “Organ concentrations after IP administration, in words” value (IP 30 and 60 μg, 70 minutes) was “high concentrations of the drug in all organs tested in a dose proportional manner” and the “CBD Plasma Concentration, AVG.” value [1] was 0.00 ng/mL. The “Total CBD, Brain, AVG.” value [1] was 0.95 ng, the “Total CBD, Kidney, AVG.” value [1] was 11.15 ng and the “Total CBD, Liver, AVG.” value [1] was 295.11 ng. The “Total CBD, Spleen, AVG.” value [1] was 64.42 ng, the “Total CBD, Total, AVG.” value (High Dose (60 μg CBD/mouse), 70 Minutes, sum of the columns) was 371.63 ng and the “CBD Plasma Concentration” value [2] was 0.00 ng/mL. The “Total CBD, Brain” value [2] was 0.00 ng (2×) and 2.86 ng, the “Total CBD, Kidney” value [2] was 18.50 ng and 14.96 ng and 0.00 ng and the “Total CBD, Liver” value [2] was 319.91 ng and 195.66 ng and 369.75 ng. The “Total CBD, Spleen” value [2] was 93.63 ng and 99.63 ng and 0.00 ng, the “Total CBD, Total” value (High Dose (60 μg CBD/mouse), 70 Minutes, individual animals, sum of the columns) was 432.04 ng and 310.25 ng and 372.61 ng and the “CBD Plasma Concentration, AVG.” value [3] was 0.00 ng/mL. The “Total CBD, Brain, AVG.” value [3] was 0.00 ng, the “Total CBD, Kidney, AVG.” value [3] was 2.343 ng and the “Total CBD, Liver, AVG.” value [3] was 47.62 ng. The “Total CBD, Spleen, AVG.” value [3] was 9.46 ng, the “Total CBD, Total, AVG.” value (Low Dose (30 μg CBD/mouse), 70 Minutes, sum of the columns) was 59.42 ng and the “CBD Plasma Concentration” value [4] was 0.00 ng/mL. For the same molecule, the “Total CBD, Brain” value [4] was 0.00 ng, the “Total CBD, Kidney” value [4] was 7.03 ng and 0.00 ng (2×) and the “Total CBD, Liver” value [4] was 41.82 ng and 19.61 ng and 81.42 ng. The “Total CBD, Spleen” value [4] was 10.04 ng and 18.35 ng and 0.00 ng, the “Total CBD, Total” value (Low Dose (30 μg CBD/mouse), 70 Minutes, individual animals, sum of the columns) was 58.89 ng and 37.96 ng and 81.42 ng and the “CBD-Mono-Val-Mono-HS Plasma Concentration, AVG.” value [5] was 210.45 ng/mL. The “Total CBD-Mono-Val-Mono-HS, Brain, AVG.” value [5] was 63.51 ng, the “Total CBD-Mono-Val-Mono-HS, Kidney, AVG.” value [5] was 1193.95 ng and the “Total CBD-Mono-Val-Mono-HS, Liver, AVG.” value [5] was 7558.89 ng. For the same molecule, the “Total CBD-Mono-Val-Mono-HS, Spleen, AVG.” value [5] was 771.76 ng, the “Total CBD-Mono-Val-Mono-HS, Total, AVG.” value (IP, High Dose (60 μg CBD/mouse), 70 Minutes, sum of the columns) was 9798.56 ng and the “CBD-Mono-Val-Mono-HS Plasma Concentration” value [6] was 137.82 ng/mL and 100.53 ng/mL and 393.00 ng/mL. The “Total CBD-Mono-Val-Mono-HS, Brain” value [6] was 46.59 ng and 42.45 ng and 101.50 ng, the “Total CBD-Mono-Val-Mono-HS, Kidney” value [6] was 780.57 ng and 248.34 ng and 2552.93 ng and the “Total CBD-Mono-Val-Mono-HS, Liver” value [6] was 8380.90 ng and 2882.40 ng and 11413.38 ng. For the same molecule, the “Total CBD-Mono-Val-Mono-HS, Spleen” value [6] was 711.31 ng and 477.40 ng and 1126.58 ng, the “Total CBD-Mono-Val-Mono-HS, Total” value (IP, High Dose (60 μg CBD/mouse), 70 Minutes, individual animals, sum of the columns, listed as CBD-Mono-Val-Mono-HS) was 10057.18 ng and 3751.113 ng and 15587.4 ng and the “CBD-Mono-Val-Mono-HS Plasma Concentration, AVG.” value [7] was 29.10 ng/mL. The “Total CBD-Mono-Val-Mono-HS, Brain, AVG.” value [7] was 9.18 ng, the “Total CBD-Mono-Val-Mono-HS, Kidney, AVG.” value [7] was 101.58 ng and the “Total CBD-Mono-Val-Mono-HS, Liver, AVG.” value [7] was 1170.01 ng. For the same molecule, the “Total CBD-Mono-Val-Mono-HS, Spleen, AVG.” value [7] was 179.54 ng, the “Total CBD-Mono-Val-Mono-HS, Total, AVG.” value (IP, Low Dose (30 μg CBD/mouse), 70 Minutes, sum of the columns) was 1489.42 ng and the “CBD-Mono-Val-Mono-HS Plasma Concentration” value [8] was 32.08 ng/mL and 32.24 ng/mL and 22.97 ng/mL. The “Total CBD-Mono-Val-Mono-HS, Brain” value [8] was 13.48 ng and 8.26 ng and 5.81 ng and the “Total CBD-Mono-Val-Mono-HS, Kidney” value [8] was 88.05 ng and 84.14 ng and 132.55 ng.
